Data: article doi:10.1101/2025.11.21.689733v1, “Identification and Characterization of a Small Molecule Ligand for the Huntingtin-HAP40 Complex” (biorxiv, 2025)

Key:
Format in all cases: binding
HTTQ54-HAP40 = target: T1, HTTQ54-HAP40 (Homo sapiens, UniProt P23610+P42858, P42858:INS38QQQQQQQQQQQQQQQQQQQQQQQQQQQQQQQQQ); assay: SPR
T1 construct: gene HTT; full-length HTT with polyQ tract of 54 residues in complex with HAP40; C-terminal Avi-tag biotinylated; Sf9 baculovirus
Excerpt: SPR on HTTQ54-HAP40 | binding affinity was indistinguishable between wild-type (Q23) HTT-HAP40 and its expanded form (Q54)

HTTQ23-HAP40 (HTT-HAP40) [1] = target: T2, HTTQ23-HAP40 (HTT-HAP40) (Homo sapiens, UniProt P23610+P42858, P42858:INS38QQ); assay: SPR, steady state, […] model; settings: read-out: apparent KD
T2 construct: full-length HTT (3144 aa, polyQ tract Q23) co-complex with HAP40, ~390 kDa; C-terminal Avi-tag biotinylated (BirA) for SPR; Sf9 baculovirus

HTTQ23-HAP40 (HTT-HAP40) [2] = target: T2, HTTQ23-HAP40 (HTT-HAP40); assay: SPR, […] model
HTTQ23-HAP40 (HTT-HAP40) [3] = target: T2, HTTQ23-HAP40 (HTT-HAP40); assay: SPR, […] model; settings: pH 7.4, 150 mM NaCl, 4% DMSO

T2 sequence (P42858 with tags, fused parts or gaps INS38QQ): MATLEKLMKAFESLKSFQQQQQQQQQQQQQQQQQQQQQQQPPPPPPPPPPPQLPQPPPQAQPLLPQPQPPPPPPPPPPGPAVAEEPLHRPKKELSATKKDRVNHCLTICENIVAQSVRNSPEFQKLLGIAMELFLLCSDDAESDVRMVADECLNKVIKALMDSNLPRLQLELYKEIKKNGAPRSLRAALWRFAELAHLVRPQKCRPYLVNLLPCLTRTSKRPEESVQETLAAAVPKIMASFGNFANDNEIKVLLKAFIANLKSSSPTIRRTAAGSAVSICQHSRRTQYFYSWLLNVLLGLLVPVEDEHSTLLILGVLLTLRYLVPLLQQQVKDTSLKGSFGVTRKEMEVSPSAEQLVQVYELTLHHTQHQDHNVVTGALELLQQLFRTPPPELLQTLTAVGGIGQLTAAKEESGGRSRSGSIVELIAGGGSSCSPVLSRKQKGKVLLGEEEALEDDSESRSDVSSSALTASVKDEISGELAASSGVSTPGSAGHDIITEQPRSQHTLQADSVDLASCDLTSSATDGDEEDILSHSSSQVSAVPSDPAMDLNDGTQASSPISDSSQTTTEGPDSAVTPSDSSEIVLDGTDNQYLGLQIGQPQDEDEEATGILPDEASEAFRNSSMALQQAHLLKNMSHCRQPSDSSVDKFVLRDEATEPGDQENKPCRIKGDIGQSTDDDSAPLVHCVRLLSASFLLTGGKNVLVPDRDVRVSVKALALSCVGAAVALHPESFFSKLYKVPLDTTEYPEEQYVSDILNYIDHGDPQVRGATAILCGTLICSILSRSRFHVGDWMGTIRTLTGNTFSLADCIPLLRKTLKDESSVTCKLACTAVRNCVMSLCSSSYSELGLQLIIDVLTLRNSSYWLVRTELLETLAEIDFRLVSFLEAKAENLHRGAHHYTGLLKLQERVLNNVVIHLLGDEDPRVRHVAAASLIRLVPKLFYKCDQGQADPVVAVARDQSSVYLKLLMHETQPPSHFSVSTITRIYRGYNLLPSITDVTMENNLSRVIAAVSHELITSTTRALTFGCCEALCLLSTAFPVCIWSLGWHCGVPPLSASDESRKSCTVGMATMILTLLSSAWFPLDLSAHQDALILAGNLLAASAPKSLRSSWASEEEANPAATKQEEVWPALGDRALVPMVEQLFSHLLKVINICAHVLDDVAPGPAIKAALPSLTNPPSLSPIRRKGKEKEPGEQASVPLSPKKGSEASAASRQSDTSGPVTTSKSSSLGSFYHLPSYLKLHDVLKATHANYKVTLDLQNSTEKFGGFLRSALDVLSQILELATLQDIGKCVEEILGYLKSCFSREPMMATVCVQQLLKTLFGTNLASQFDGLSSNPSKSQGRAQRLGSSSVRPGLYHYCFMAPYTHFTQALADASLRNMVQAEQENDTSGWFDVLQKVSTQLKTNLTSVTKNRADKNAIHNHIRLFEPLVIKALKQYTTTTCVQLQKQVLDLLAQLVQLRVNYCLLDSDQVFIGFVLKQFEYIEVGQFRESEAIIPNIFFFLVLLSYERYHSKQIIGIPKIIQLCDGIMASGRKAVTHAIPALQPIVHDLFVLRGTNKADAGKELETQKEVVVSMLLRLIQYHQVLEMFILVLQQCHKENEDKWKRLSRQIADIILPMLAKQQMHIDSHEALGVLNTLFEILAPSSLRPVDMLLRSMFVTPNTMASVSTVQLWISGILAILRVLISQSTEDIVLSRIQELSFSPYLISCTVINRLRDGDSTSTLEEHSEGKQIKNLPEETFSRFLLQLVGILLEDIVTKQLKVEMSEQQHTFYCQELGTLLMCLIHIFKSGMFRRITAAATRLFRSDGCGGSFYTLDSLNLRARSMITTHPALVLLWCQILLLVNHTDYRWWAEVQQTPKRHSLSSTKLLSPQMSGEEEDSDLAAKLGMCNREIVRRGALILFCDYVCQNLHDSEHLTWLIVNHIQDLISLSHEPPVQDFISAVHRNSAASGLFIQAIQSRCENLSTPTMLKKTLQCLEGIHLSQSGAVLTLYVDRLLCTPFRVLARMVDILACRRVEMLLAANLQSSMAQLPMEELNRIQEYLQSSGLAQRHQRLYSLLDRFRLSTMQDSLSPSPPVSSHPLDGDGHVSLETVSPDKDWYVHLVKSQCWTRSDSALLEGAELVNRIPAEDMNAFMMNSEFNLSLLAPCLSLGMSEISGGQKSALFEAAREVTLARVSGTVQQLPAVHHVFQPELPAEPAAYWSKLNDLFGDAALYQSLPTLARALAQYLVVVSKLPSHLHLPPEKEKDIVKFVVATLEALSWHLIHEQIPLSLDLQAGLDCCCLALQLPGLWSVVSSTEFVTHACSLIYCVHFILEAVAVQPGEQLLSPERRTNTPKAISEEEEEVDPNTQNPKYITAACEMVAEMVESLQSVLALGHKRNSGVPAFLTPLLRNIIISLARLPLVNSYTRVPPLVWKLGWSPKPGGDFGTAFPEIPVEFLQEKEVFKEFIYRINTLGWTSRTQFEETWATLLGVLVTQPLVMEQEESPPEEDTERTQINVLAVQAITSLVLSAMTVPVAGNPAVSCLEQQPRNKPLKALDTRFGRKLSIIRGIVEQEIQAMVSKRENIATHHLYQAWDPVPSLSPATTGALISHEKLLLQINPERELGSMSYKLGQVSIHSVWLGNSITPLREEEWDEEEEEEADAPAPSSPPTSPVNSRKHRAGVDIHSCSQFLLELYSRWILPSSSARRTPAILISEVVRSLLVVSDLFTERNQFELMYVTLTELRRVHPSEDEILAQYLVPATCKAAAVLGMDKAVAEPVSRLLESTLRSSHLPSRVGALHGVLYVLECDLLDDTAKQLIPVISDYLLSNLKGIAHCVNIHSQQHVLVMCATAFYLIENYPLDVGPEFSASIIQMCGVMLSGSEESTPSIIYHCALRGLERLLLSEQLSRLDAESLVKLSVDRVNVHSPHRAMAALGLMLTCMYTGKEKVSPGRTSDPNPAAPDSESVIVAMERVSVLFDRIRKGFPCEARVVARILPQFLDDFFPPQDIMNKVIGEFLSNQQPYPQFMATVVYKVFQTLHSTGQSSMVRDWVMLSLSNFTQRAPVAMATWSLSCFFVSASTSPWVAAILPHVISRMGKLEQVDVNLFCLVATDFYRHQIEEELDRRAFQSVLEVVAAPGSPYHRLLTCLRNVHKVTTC
T2 sequence (P23610 whole entry, stated change not applied): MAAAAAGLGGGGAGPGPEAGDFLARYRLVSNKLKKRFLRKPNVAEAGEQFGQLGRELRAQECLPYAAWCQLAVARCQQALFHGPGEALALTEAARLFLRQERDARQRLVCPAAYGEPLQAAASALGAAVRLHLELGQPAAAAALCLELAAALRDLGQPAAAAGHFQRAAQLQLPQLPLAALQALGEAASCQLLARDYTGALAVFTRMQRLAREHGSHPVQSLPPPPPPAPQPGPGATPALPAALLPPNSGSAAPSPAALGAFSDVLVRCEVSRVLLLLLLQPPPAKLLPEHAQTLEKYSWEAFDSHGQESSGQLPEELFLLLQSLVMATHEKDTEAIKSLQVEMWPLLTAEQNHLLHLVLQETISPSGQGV

For Cn1ncc2ccc(CNc3ccccc3C3CC3(F)F)cc21 (racemic) [compound 1, AS-MS Hit 1], the Kd (HTTQ54-HAP40) was 4 ± 1 µM and the Kd (HTTQ23-HAP40 (HTT-HAP40) [1]) was 5 ± 2 µM.
With Cn1ncc2ccc(CNc3ccccc3[C@H]3CC3(F)F)cc21 (single isomer, unassigned; peak 2) [compound 1, Peak 2 of AS-MS Hit 1] the Kd (HTTQ23-HAP40 (HTT-HAP40) [1]) was 4 ± 2 µM.
For Cn1ncc2ccc(CNc3ccccc3C3CC(F)(F)C3)cc21 [compound 3, 3], the Kd (HTTQ23-HAP40 (HTT-HAP40) [2]) was 3.5 ± 1 µM.
In the case of Cc1nn(C)c2cc(CNc3ccccc3C3CCC(F)(F)C3)ccc12 (centres unmarked) [compound 21, 21], the KD (HTTQ23-HAP40 (HTT-HAP40) [3]) is reported as “These modifications were well-tolerated but did not improve affinity”.
